Common to all, as to type: in vivo, mouse
Assay [1] concerns Fmr1-deficient animal model (fragile X syndrome). Briefly: three-chamber test in Fmr1-deficient animal model. As to conditions: Fmr1 KO mice, lisuride intraperitoneally 50 ug/kg, test 30 minutes after administration, FIG. 1. The procedure: (§1) Purchased a 5-week-old Fmr1 knockout mouse (Jackson Laboratory, USA) weighing about 22 g to 24 g, and acclimatized to an environment with a temperature of 23±2° C. and humidity of 55±10% and a light-dark cycle of 12 hours while allowing them to freely consume water and feed (Experimental Animal Center, Konkuk University). As experimental animals, wild-type (WT) with normal FMRP expression and male KO mice lacking FMRP (fragile X mental retardation protein) expression (fragile X syndrome; FXS) were used. Dosing and experiments were performed according to the age of the week. Dosing was performed at the same time. Behavioral experiments were conducted 30 minutes after administration. […] Meanwhile, 0.25 (v/v) % DMSO was intraperitoneally administered to the control group.
If the animal model spent more time with a novel mouse rather than a familiar mouse, it is judged to be social. The test animal was exposed to the stimulus mouse for 10 minutes, and to a new stimulus mouse (novel) for another 10 minutes. In this case, the old mouse is called familiar and the new mouse is called a novel mouse. The time the test mouse explored each stimulus mouse was measured and expressed as %. As a result of the experiment, it was confirmed that the wild type spent more time with the novel mouse than the familiar mouse, indicating normal sociability. […]

Assay [2] concerns animal model treated with apomorphine in wild-type mice. In words: pre-wave suppression test in apomorphine-treated wild-type mice. The settings on record: lisuride intraperitoneally after apomorphine, FIG. 5. The procedure:
(§2) Pre-pulse suppression (%)=100−[(startle response to pre-stimulus+stimulus)/(start-up response to stimulus)]*100 [Equation 1]
(§3) Startle response was confirmed in an animal model treated with apomorphine or MK-801 in wild-type mice. […] Thereafter, sensorimotor gating was evaluated through a pre-wave suppression test (converted using Equation 1 above).

The test system of assay [3] is Fmr1-deficient animal model (fragile X syndrome). In words: home-cage test in Fmr1-deficient animal model. As to conditions: Fmr1 KO mice, lisuride once daily for 5 days, sniffing measured for 15 minutes, FIG. 2. The procedure: as §1
A home-cage test evaluates sociability in the breeding cage removing the possible confounders of stress due to abrupt changes in the environment. After raising the group of animals to be tested together, a wire cage was placed inside the home cage and allowed the animals to acclimatize for 30 minutes. A stimulus mouse was placed in a wire cage and the duration of sniffing by the subject mice to the wire cage was measured for 15 minutes.

The test system is the same in assay [4]. Briefly: pre-pulse (pre-wave) suppression test in Fmr1-deficient animal model. As to conditions: Fmr1 KO mice, lisuride intraperitoneally, FIG. 3. Here is the method: as §1
The startle response was confirmed using an Fmr1-deficient animal model. […] Thereafter, sensorimotor gating was evaluated through a pre-wave suppression test (converted using Equation 1 below).
as §2

The test system of assay [5] is animal model treated with MK-801 in wild-type mice. In words: pre-wave suppression test in MK-801-treated wild-type mice. The settings on record: lisuride intraperitoneally after MK-801, FIG. 6. Here is the method:
as §2, §3

The structures appear in SMILES notation.

Take `CCN(CC)C(=O)N[C@H]1C=C2c3cccc4[nH]cc(c34)C[C@H]2N(C)C1` [lisuride, 1,1-Diethyl-3-(7-methyl-4,6,6a,7,8,9-hexahydro-indolo [4,3-fg]quinolin-9-yl)-urea]: in assay [1], the “sociability: time spent with novel mouse versus familiar mouse” value was “more time was spent with the novel mouse than with the familiar mouse”. In addition, the “pre-pulse suppression (sensorimotor gating)” value in assay [2], in assay [4] and in assay [5] was “pre-pulse suppression was restored” in each case. For the same compound, in assay [3], the “sniffing time to wire cage with stimulus mouse (sociability)” value is listed as “sniffing time increased again”.

Values taken from patent US20230024384A1, “C[…] COMPOUND FOR TREATING FRAGILE X SYNDROME OR RELATED DEVELOPMENTAL DISORDERS” (NEUROVENTI, priority 2020, published 2023).
